Test results taken from US10745433B2, “Compounds for inhibiting cancer and virus” (priority 2016, dated 2020).
Entries after “also recorded” stand apart in the source; their conditions may differ. Like-named read-outs stand apart in the source and are kept apart here.

What was measured:
DU145 = test: Growth inhibition assay (MTT), DU145; type: cell-based; conditions: Homo sapiens
Experimental: (§1) The compounds of the invention were subjected to growth inhibition assay. Cells were seeded in 96-well plastic plates and exposed to the compounds of the invention for 72 hours. Cell viability was assessed using the 3-(4,5-dimethylthiazol-2-yl)-2,5-diphenyltetrazolium bromide assay.

PC3 = test: Growth inhibition assay (MTT), PC3; type: cell-based; conditions: Homo sapiens
Experimental: as §1

LNCap = test: Growth inhibition assay (MTT), LNCap; type: cell-based; conditions: Homo sapiens
Experimental: as §1

N87 = test: Growth inhibition assay (MTT), N87; type: cell-based
Experimental: as §1

MKN45 = test: Growth inhibition assay (MTT), MKN45; type: cell-based; conditions: Homo sapiens
Experimental: as §1

MCF-7 = test: Growth inhibition assay (MTT), MCF-7; type: cell-based; conditions: Homo sapiens
Experimental: as §1

HCT116 = test: Growth inhibition assay (MTT), HCT116; type: cell-based; conditions: Homo sapiens
Experimental: as §1

HT29 = test: Growth inhibition assay (MTT), HT29; type: cell-based; conditions: Homo sapiens
Experimental: as §1

[1] = test system: human MDA-MB-231 breast adenocarcinoma; test: MDA-MB-231 xenograft animal model; type: in vivo; conditions: oral, female nude mice; for body weight: FIG. 1(B)
Excerpt: (§2) Anti-cancer Activity Evaluation of the Compounds of the Invention (MPT0L167 and MPT0L179) Against Human MDA-MB-231 Breast Cancer in MDA-MB-231 Xenograft Animal Model and Human Colorectal Cancer HCT116 Xenograft Model […] This study utilized five groups of mice (n=7-8) bearing established human MDA-MB-231 breast adenocarcinoma with mean volumes of ˜250 mm^3.

[2] = test system: human HCT116 colorectal cancer; test: Human colorectal cancer HCT116 xenograft model; type: in vivo; conditions: oral, female nude mice; for body weight: FIG. 2(B)
Excerpt: as §2, with “HCT116 colorectal cancer” for “MDA-MB-231 breast adenocarcinoma”, “˜200” for “˜250”

[3] = Pharmacokinetic study (PK), i.v. in rats; type: in vivo; conditions: 2 mg/kg i.v.
Experimental: 2 mg/kg of niclosamide (MPT0L166) and MPT0L167, MPT0L180 and MPT0L196 were each independently given to five rats by i.v. The blood samples were taken from the rats after 0.03 hour, 0.08 hour, 0.25 hour, 0.5 hour, 1 hour, 2 hours, 4 hours, 6 hour, 8 hours and 24 hours. LC-MS/MS was used to detect the concentration of MPT0L167 in blood.

[4] = Metabolic stability in rat liver microsomes; type: in vitro ADME; conditions: FIG. 3
[5] = Metabolic stability in dog liver microsomes; type: in vitro ADME; conditions: FIG. 3
[6] = Metabolic stability in human liver microsomes; type: in vitro ADME; conditions: FIG. 3
[7] = test system: Zika virus (PRVABC59 strain); test: Zika animals study; type: in vivo
Experimental: The Zika sensitive female mice: ROSA, STAT1^−/− strain was used. MPT0L167 was used to pre-treat the mice for one day. 4*10^7 cells (U-87 MG human glioblastoma cell with infection with Zika virus (PRVABC59 strain)) were injection in mice. After infection, MPT0L167 was administered with 100 mg/kg to the mice by po,qd. The virus detection in serum at day 3. The concentration of virus in serum was detected by Viralplaque assays.

Panc-1 = test: Growth inhibition assay (MTT), Panc-1; type: cell-based; conditions: Homo sapiens, Panc-1, Pancreatic cancer, 72 hours
Experimental: as §1

MIAPACA = test: Growth inhibition assay (MTT), MIAPACA; type: cell-based; conditions: Homo sapiens, MIA PaCa-2, 72 hours
Experimental: as §1

[8] = DU-145, DU145, Prostate cancer, 72 hours, MTT, read-out: IC50
[9] = PC-3, PC3, Prostate cancer, 72 hours, MTT, read-out: IC50
[10] = LNCap, Prostate cancer, 72 hours, MTT, read-out: IC50
[11] = N87, Gastric cancer, 72 hours, MTT, read-out: IC50
[12] = MKN-45, MKN45, Gastric cancer, 72 hours, MTT, read-out: IC50
[13] = MCF7, MCF-7, Breast cancer, 72 hours, MTT, read-out: IC50
[14] = HCT-116, HCT116, Colon cancer, 72 hours, MTT, read-out: IC50
[15] = HT-29, HT29, Colon cancer, 72 hours, MTT, read-out: IC50

O=C(Nc1ccc([N+](=O)[O-])cc1Cl)c1cc(Cl)ccc1OC1OC(CO)C(O)C(O)C1O (centres unmarked) [MPT0L167, 5-Chloro-N-(2-chloro-4-nitro-phenyl)-2-(3,4,5-trihydroxy-6-hydroxymethyl-tetrahydro-pyran-2-yloxy)-benzamide]
IC50 (DU145; [8]): > 25 µM
IC50 (PC3; [9]): > 25 µM
IC50 (LNCap; [10]): > 25 µM
IC50 (N87; [11]): > 25 µM
IC50 (MKN45; [12]): > 25 µM
IC50 (MCF-7; [13]): > 25 µM
IC50 (HCT116; [14]): > 50 µM
IC50 (HT29; [15]): > 50 µM
tumor volume ([1]; FIG. 1(A)): significantly reduces tumor volume
body weight [1]: does not significantly reduce body weight
body weight ([1]; listed as MPLOL167): did not exhibit significant change
tumor volume ([2]; FIG. 2(A)): significantly reduces tumor volume
body weight [2]: does not significantly reduce body weight
body weight ([2]; listed as MPLOL167): did not exhibit significant change
half-life in vivo compared with niclosamide (MPT0L166) [3]: longer half-life than MPT0L166
AUC % Extrap obs ([3]; mean): 1.15%
AUC(0-inf) ([3]; rat, blood, iv, mean): 587 ng·h/mL
AUC(0-t) ([3]; rat, blood, iv, mean): 580 ng·h/mL
Cmax ([3]; rat, blood, iv, mean): 3880 ng/mL
MRT inf ([3]; rat, blood, iv, mean): 1.4 h
Tmax ([3]; rat, blood, iv, mean): 1.8 min
half-life ([3]; rat, blood, iv, mean): 7.38 h
clearance ([3]; rat, blood, iv, mean, read-out: CL obs (converted)): 59.1 mL/min/kg
Vd ([3]; rat, blood, iv, mean, read-out: VZ obs): 37.3 L/kg
metabolic stability compared with MPT0L166 [4]: more stable than MPT0L166
metabolic stability compared with MPT0L166 [5]: more stable than MPT0L166
metabolic stability compared with MPT0L166 [6]: more stable than MPT0L166
concentration of virus in serum (Viralplaque assays) ([7]; female ROSA, STAT1−/− mice, 100 mg/kg po,qd, serum at day 3, FIG. 4(A)): inhibition of Zika virus infection; also recorded: significantly inhibits Zika virua growth
body weight ([7]; mouse, in vivo, po, 100 mg/kg): does not significant reduce body weight; also recorded: not significantly changed
melting point: 212.6 to 213.2 °C

CC(=O)OCOc1ccc(Cl)cc1C(=O)Nc1ccc([N+](=O)[O-])cc1Cl [MPT0L180, Acetic acid 4-chloro-2-(2-chloro-4-nitro-phenylcarbamoyl)-phenoxymethyl ester]
IC50 (DU145; [8]): > 25 µM
IC50 (PC3; [9]): > 25 µM
IC50 (LNCap; [10]): 2.44 µM
IC50 (N87; [11]): > 25 µM
IC50 (MKN45; [12]): > 25 µM
IC50 (MCF-7; [13]): > 25 µM
IC50 (HCT116; [14]): > 50 µM
IC50 (HT29; [15]): > 50 µM
melting point: 195.5 to 197.2 °C

O=C(Nc1ccc([N+](=O)[O-])cc1Cl)c1cc(Cl)ccc1OC(=O)N1CCC(N2CCCCC2)CC1 [MPT0L196, [1,4′]Bipiperidinyl-1′-carboxylic acid 4-chloro-2-(2-chloro-4-nitro-phenylcarbamoyl)-phenyl ester]
IC50 (DU145; DU-145, 72 h): > 25 µM
IC50 (PC3; PC-3, 72 h): > 25 µM
IC50 (LNCap; LNCaP, 72 h): > 25 µM
IC50 (N87; 72 h): > 25 µM
IC50 (MKN45; MKN-45, 72 h): > 25 µM
IC50 (MCF-7; MCF7, 72 h): > 25 µM
IC50 (HCT116; HCT-116, 72 h): > 50 µM
IC50 (HT29; HT-29, 72 h): > 50 µM
melting point: 216.3 to 217.9 °C

O=C(Nc1ccc([N+](=O)[O-])c(C(F)(F)F)c1)c1cc(Cl)ccc1O
melting point: 172.4 to 174 °C

O=C(Nc1ccc([N+](=O)[O-])cc1Cl)c1cc(Cl)ccc1O [#166, niclosamide, reference compound]
IC50 (DU145; [8]): > 10 µM
IC50 (PC3; [9]): 1.04 µM
IC50 (LNCap; [10]): 0.97 µM
IC50 (N87; [11]): 0.14 µM
IC50 (MKN45; [12]): > 25 µM
IC50 (Panc-1): 0.43 µM
IC50 (MIAPACA): 1.17 µM
IC50 (MCF-7; [13]): 3.69 µM
IC50 (HCT116; [14]): 5.64 µM
IC50 (HT29; [15]): 31.1 µM
